Laboratory results reported in publication PMC6776562, “Inhibition of Rac1-dependent forgetting alleviates memory deficits in animal models of Alzheimer’s disease” (Protein & Cell, 2019).
Entries after “also recorded” stand apart in the source; their conditions may differ. Blank lines part the entries; values can stand above or below the compound they belong to.

What was measured:
[1] = In vitro blood-brain barrier permeability assay; format: in vitro ADME; conditions: dog, 37 °C, MDR-MDCK
Procedure: The MDR-MDCK cell line can be used as a fast blood-brain barrier (BBB) model to aid drug discovery (Wang et al., [2005]). In this study, the MDR-MDCK cell line was used to evaluate the permeability coefficients of CS7171 and JKF-034. Briefly, CS7171 and JKF-034 were prepared to final concentrations of 5 μmol/L. The cells were dosed on the basolateral side (B-A) and apical side (A-B) and incubated at 37 °C for 90 min. Each test was performed in duplicate. The apparent permeability coefficient, Papp, was calculated using the following formula: Papp=VA/Area×Time×(drugacceptor,90-min/drugdonor,0-min×Dilution Factor
VA is the volume in the acceptor well, Area is the surface area of the membrane, Time is the total transport time in seconds, [drug]donor, 0-min is the donor drug concentration measured at 0 min; [drug]acceptor, 90-min is the acceptor drug concentration measured at 90 min; dilution factor is the degree of dilution of the donor sample before loading to LC-MS/MS.

[2] = biological target: Rac1 (Mus musculus, UniProt P63001); experiment: Rac1 activity (Rac1-GTP/total Rac1) in hippocampal tissue by PAK-PBD pull-down and Western blot after drug administration; format: in vivo, APP/PS1 mice
Procedure: We first assayed Rac1 activity in hippocampal tissues from AD patients and healthy age-matched, non-demented controls (Detailed information is provided in Table 1). The levels of the guanosine triphosphate (GTP)-bound active form of Rac1 were measured using the p21-binding domain (PBD) pull-down assay. The GTP-bound active form of Rac1 was pulled down through the interactive p21-activated kinase (PAK) fragment using PAK-PBD beads and measured using a Western blot assay (Fig. 1A), as described in previous studies (Shuai et al., [2010]; Liu et al., [2016]) from our laboratory and studies conducted by other research groups (Sander et al., [1998]; Barnes et al., [2008]). The total amount of Rac1 and actin were also evaluated using the Western blot analyses (See MATERIALS AND METHODS). […] Since there were no significant differences in total Rac1 levels between the experimental and control groups (See representative Western blot in all relevant figures), the ratio of Rac1-GTP to total Rac1 was taken as a measure of Rac1 activity. […] Consistent with this observation, Rac1 activity was also elevated in the hippocampus of APP/PS1 mice at different age (Fig. 1D). […] This increase was more pronounced in older flies (Fig. S1F).
(§1) Mice were treated with EHop-016 (10 mg/kg), CS7170 (50 mg/kg), CS7171 (50 mg/kg), and JKF-034 (40 mg/kg). These drugs were dissolved in saline (0.9% NaCl) containing 0.5% Tween-80 (Sigma P4780). Each mouse received 200 μL of the solution by intragastric administration once per day (administered at 9:00 am). The drug administration was started seven days before the beginning of the Morris water maze (MWM) task and was continued until the end of the assay. All control groups were fed with vehicle solution.
The hippocampal tissues from human subjects and mice were harvested and stored in a liquid nitrogen tank for biochemical assay. The tissues were homogenized in cold lysis buffer (Merck-Millipore, 20-168). The insoluble debris were removed after centrifugation at 13,000 rpm (for 10 min, at 4 °C). For GTP-bound Rac/Cdc42, lysates were incubated with GST-tagged PAK (p21-activated kinase)-PBD agarose beads (Cytoskeleton, PAK02) overnight at 4 °C. On the second day, the beads were washed three times with lysis buffer before subjecting them to SDS-PAGE (15%) and transferring them onto nitrocellulose membranes (Millipore, HATF00010). The membranes were incubated with primary antibodies (for Rac1: BD Transduction Laboratories, #610650, 1:2,000 dilution; for Cdc42, Santa Cruz Biotechnology, lot No. sc-8401, 1:500 dilution) overnight at 4 °C and with HRP-conjugated goat anti-mouse IgG (Cell Signaling Technology, #7076) for 1 h at room temperature. Intensities of the detected bands were analyzed using ImageJ software (National Institutes of Health). The total amount of Rac1 in the lysate was detected using a routine Western blot procedure. RhoA-GTP levels were measured by using the Rho-GTP monoclonal antibody (New East, lot No. 26904, Dilution: 1:1,000). Information regarding the other antibodies used is as follows: anti-RhoA (67B9), Cell Signaling, lot No. #2117, dilution: 1:1,000; anti-Actin, Clone C4, Millipore, lot No. #3018859, dilution: 1:2,000; anti-Amyloid 1-42 6E10, BioLegend, lot No. 803001, dilution: 1:1,000; anti-Phospho-PAK1 (Ser144)/PAK2 (Ser141), Cell Signaling, lot No. #2606, dilution: 1:1,000.

[3] = test system: APP/PS1 mice; experiment: Morris water maze (MWM) spatial learning in AD mice; format: in vivo, mouse
Procedure: as §1
The MWM test, a classic paradigm used to study spatial reference memory, was performed (Vorhees and Williams, [2006]). Briefly, a circular polypropylene water tank (120 cm in diameter) was filled with opaque water and milk (20 °C ± 1 °C) and a transparent platform (15 cm diameter) was submerged (2 cm below the water surface) in the center of one of the four virtually divided quadrants. Distal cues were fixed on the wall of the tank as spatial references. For the classic training paradigm (Figs. 2 and 6), mice were allowed to find the platform within 60 s and to remain on it for at least 5 s. For the modified training paradigm (Fig. 3A), mice were trained over 5 consecutive sessions with a 1-h intervals within one day. After training, mice were returned to their home cages and the memory of the location of the platform was tested at 6 h after training (Fig. 3C–D). A mouse behavior tracking software (ANY-maze software) was used to record data automatically.

[4] = test system: Aβ42 transgenic flies (elav/Y; UAS-Aβ42/+); experiment: Pavlovian olfactory aversive conditioning in AD flies; format: in vivo, Drosophila; conditions: AD flies fed 100 μmol/L EHop-016 for 7 days
Procedure: (§2) Flies were treated with EHop-016 (Yong-Can Biotech). The EHop-016 was dissolved in dimethyl sulfoxide (DMSO; Sigma, D8418-100ML) to make a 10-mmol/L stock solution. This solution was stored at −20 °C for later use. Before administration, 4% (m/v) sucrose solution was used to dilute the stock solution to a concentration of 100 µmol/L (working solution). After the flies were starved for 3 h in empty vials, they were fed with the working solution for 5 h. Feeding was carried out once per day until testing.
To assess learning and memory, flies underwent classic olfactory aversive conditioning. One- to two-day-old flies were collected and fed with EHop-016 (100 µmol/L) for 7 days. Training and testing were performed at 24 °C with 60% relative humidity. During training, about 100 flies were exposed to an electric shock (unconditioned stimulus [US]) paired with either 3-octanol (>95% purity; Fluka, Sigma-Aldrich) or 4-methylcyclohexanol (>99% purity; Fluka, Sigma-Aldrich) as the conditioned stimulus (CS). Performance was tested using a T-maze apparatus within which 3-octanol and 4-methylcyclohexanol were delivered from opposite arms simultaneously. […] The learning score was calculated as the difference between the number of flies in each arm divided by the sum of flies in both arms immediately after training. Performance index was calculated as the average of two reciprocal tests to avoid odor bias. […]

[5] = biological target: Rac1 (Drosophila melanogaster, UniProt P40792); experiment: Rac1 activity in fly whole brain lysate by Western blot; format: in vivo; conditions: AD flies; EHop-016 100 μmol/L
Procedure: as §2
The hippocampal tissues from human subjects and mice were harvested and stored in a liquid nitrogen tank for biochemical assay. The tissues were homogenized in cold lysis buffer (Merck-Millipore, 20-168). The insoluble debris were removed after centrifugation at 13,000 rpm (for 10 min, at 4 °C). For GTP-bound Rac/Cdc42, lysates were incubated with GST-tagged PAK (p21-activated kinase)-PBD agarose beads (Cytoskeleton, PAK02) overnight at 4 °C. […] Intensities of the detected bands were analyzed using ImageJ software (National Institutes of Health). The total amount of Rac1 in the lysate was detected using a routine Western blot procedure. RhoA-GTP levels were measured by using the Rho-GTP monoclonal antibody (New East, lot No. 26904, Dilution: 1:1,000). […]

[6] = test system: LTP in hippocampal slices of APP/PS1 mice; experiment: Long-term potentiation (fEPSP recording) in hippocampal slices; format: cell-based, mouse; conditions: brain slices of 6-month-old APP/PS1 mice; EHop-016 10 μmol/L in ACSF
Procedure: Acute 300-μm transverse hippocampal slices were prepared using a vibratome (VTS3000, USA). The slices were maintained at room temperature in a submersion chamber in artificial cerebrospinal fluid (ACSF) containing 125 mmol/L NaCl (Sigma, 71376), 2.5 mmol/L KCl (Sigma, P9541), 2 mmol/L CaCl2 (Sigma, 499609), 1 mmol/L MgCl2 (Sigma, M1028), 1.25 mmol/L NaH2PO4 (Sigma, S3139), 24 mmol/L NaHCO3 (Sigma, S5761) (pH = 7.4), and 15 mmol/L glucose (Sigma, G8270), bubbled with 95% O2 and 5% CO2. Slices were incubated for at least 1 h before removal for experiments. Slices were kept in the MED probe for 1 h for attachment to the 16-channel array (MED-PG515A, Alpha MED Sciences; preheated to 33 °C). Extracellular field excitatory post-synaptic potentials (fEPSPs) in the Schaffer collateral pathway were evoked at 0.025 Hz and recorded in the CA1. The fEPSPs were evoked using a stimulation intensity that elicited a 30% maximal response. Data acquisition and analysis were performed using the multi-electrode MED64 hardware and software package (Panasonic). Additional analyses were performed using custom macros running under Igor Pro. The LTP was induced by one train of theta burst stimulation (TBS) consisting of one epoch of 10 trains of five bursts repeated at 5 Hz and delivered at the same intensity as in the baseline recordings. […]

[7] = In vitro metabolic stability in human liver microsomes; format: in vitro ADME
Procedure: (§3) Measurements of metabolic stability can be performed with liver microsomes, which are known to contain the major drug-metabolizing enzymes and UDP-glucuronosyltransferase (Baranczewski et al., [2006]). The in vitro metabolic stability levels of CS7171 and JKF-034 were measured using human, monkey, and mouse liver microsomes. The metabolic half-time (T1/2) and intrinsic clearance (Clint) were assayed using LC-MS analysis. Ketanserin is a potent, orally effective antagonist of endogenous serotonin. Its pharmacological profile is well studied (Brogden and Sorkin, [1990]). In this study, we used ketanserin as a control. If the T1/2 of the tested compound was 30–120 min, the compound was considered to show moderate metabolism in liver microsomes. If the T1/2 value was less than 30 min, the compound was considered to be susceptible to metabolism in liver microsomes.

[8] = In vitro metabolic stability in mouse liver microsomes; format: in vitro ADME
Procedure: as §3

[9] = In vitro metabolic stability in monkey liver microsomes; format: in vitro ADME
Procedure: as §3

[10] = test system: Rac1 in HEK-293 cells; experiment: Rac1 activation in cultured cells detected by G-LISA; format: cell-based; conditions: 10 μg/mL Aβ42 oligomers in culture medium for 2 h
Procedure: Synthetic wide-type Aβ42 (purchased from AnaSpec) was initially dissolved in hexafluoroisopropanol (Sigma) to 5 mg/mL for subpackaging. Hexafluoroisopropanol was removed by air drying to obtain an Aβ42 peptide film, which was stored at −80 °C. Then, 24 h before the experiment, the peptide film was first re-suspended in DMSO to a concentration of 12.5 mg/mL and then diluted with Dulbecco’s Modified Eagle Medium (DMEM)/F-12 (phenol red-free; Invitrogen) to a final concentration of 500 μg/mL. The HEK-293 cells were cultured in DMEM containing 10% fetal bovine serum (FBS) at 37 °C with 5% CO2. For oligomer treatment, cells were washed with fresh medium and incubated with 10 μg/mL Aβ42 oligomers for 2 h. Cells were washed twice with PBS before they are collected for Rac1 activity detection by G-LISA (BK128, Cytoskeleton) in accordance with the manufacturer’s protocol.

[11] = APP/PS1 mice (eight-month-old), oral CS7171 50 mg/kg, CS7170 50 mg/kg, JKF-034 40 mg/kg once per day

Compound: COc1cc(C=C2C(=O)NN(c3ccc(Cl)c(Cl)c3)C2=O)ccc1O [CS7170]
hippocampal Rac1 activity (Rac1-GTP/total Rac1) [2, 11]: not and unable to inhibit Rac1 activity
MWM learning deficit / spatial memory [3, 11]: not

Compound: CCn1c2ccccc2c2cc(Nc3ccnc(NCCCN4CCOCC4)n3)ccc21 [EHop-016]
total Rac1 expression in hippocampal tissues ([2]; 9-month-old AD mice, EHop-016 10 mg/kg): without changing total Rac1 expression
Rac1 activity (Rac1-GTP/Total Rac1) in hippocampal tissues ([2]; 9-month-old AD mice, EHop-016 10 mg/kg, intragastric once per day, 10 days, 10 mg/kg): significantly inhibited Rac1 activity; also recorded: inhibition of Rac1 activity
MWM escape latency / learning deficit ([3]; 9-month-old APP/PS1 mice, EHop-016 10 mg/kg, versus vehicle-treated AD mice, 10 mg/kg): took less time to locate the hidden platform; also recorded: did not significantly differ from that of WT mice; also recorded: mitigated the learning deficit
learning defect in aversive olfactory conditioning [4]: significantly rescued the learning defects; also recorded: rescued the learning defect
Rac1 activity in whole brain lysis [5]: reduced Rac1 activity; also recorded: inhibition of Rac1 activity
total Rac1 expression [5]: without changing the total Rac1 expression
LTP maintenance (fast decay after TBS) [6]: The fast decay was rescued; also recorded: attenuated

Compound: Amyloid-beta 42 [Aβ42]
Rac1 activity in HEK-293 cells [10]: capable of stimulating Rac1 activity

Other lines, results leading:

Papp A→B at 90 min, 5 μmol/L ([1]; MDCK-MDR1, A-B): 40.5 ×10⁻⁶ cm/s
Papp B→A at 90 min, 5 μmol/L ([1]; MDCK-MDR1, B-A): 28.6 ×10⁻⁶ cm/s
Compound: COCCc1ccc(OCC(O)CNC(C)C)cc1 (stereo not drawn) [Metoprolol, reference compound]

CLint scaled [7]: 39.5 mL/min/kg
half-life [7]: 44.1 min
CLint scaled [8]: 312 mL/min/kg
half-life [8]: 17.5 min
CLint scaled [9]: 111 mL/min/kg
half-life [9]: 18.3 min
Compound: O=C(c1ccc(F)cc1)C1CCN(CCn2c(=O)[nH]c3ccccc3c2=O)CC1 [Ketanserin, reference compound]
